Patent US8481528B2 (Hoffmann-La Roche Inc., priority 2010, dated 2013)

target: T1, human V1a receptor (Homo sapiens, UniProt P37288); assay: human V1a receptor binding (3H-Vasopressin SPA, HEK293 membranes); details: not given
T1 construct: expressed in transfected cells; host or cells: HEK293 cells, transiently transfected; cell membranes
Procedure: The human V1a receptor was cloned by RT-PCR from total human liver RNA. The coding sequence was subcloned in an expression vector after sequencing to confirm the identity of the amplified sequence. […] Cell membranes were prepared from HEK293 cells transiently transfected with the expression vector and grown in 20 liter fermenters with the following protocol.
50 g of cells are resuspended in 30 ml freshly prepared ice cold Lysis buffer (50 mM HEPES, 1 mM EDTA, 10 mM magnesium dichloride adjusted to pH=7.4+complete cocktail of protease inhibitor (Roche Diagnostics)). Homogenized with Polytron for 1 min and sonicated on ice for 2×2 minutes at 80% intensity (Vibracell sonicator). The preparation is centrifuged 20 min at 500 g at 4° C., the pellet is discarded and the supernatant centrifuged 1 hour at 43′000 g at 4° C. (19'000 rpm). The pellet is resuspended in 12.5 ml Lysis buffer+12.5 ml sucrose 20% and homogenized using a Polytron for 1-2 min. The protein concentration is determined by the Bradford method and aliquots are stored at −80° C. until use. For binding studies 60 mg Yttrium silicate SPA beads (Amersham®) are mixed with an aliquot of membrane in binding buffer (50 mM Tris, 120 mM sodium chloride, 5 mM potassium chloride, 2 mM calcium dichloride, 10 mM magnesium dichloride) for 15 minutes with mixing. 50 μl of bead/membrane mixture is then added to each well of a 96 well plate, followed by 50 μl of 4 nM 3H-Vasopressin (American Radiolabeled Chemicals). For total binding measurement 100 μl of binding buffer are added to the respective wells, for non-specific binding 100 μl of 8.4 mM cold vasopressin and for compound testing 100 μl of a serial dilution of each compound in 2% dimethyl sulfoxide. The plate is incubated 1 h at room temperature, centrifuged 1 min at 1000 g and counted on a Packard Top-Count. Non-specific binding counts are subtracted from each well and data is normalized to the maximum specific binding set at 100%. To calculate an IC50 the curve is fitted using a non-linear regression model (XLfit) and the Ki is calculated using the Cheng-Prussoff equation.

T1 sequence (P37288 whole entry): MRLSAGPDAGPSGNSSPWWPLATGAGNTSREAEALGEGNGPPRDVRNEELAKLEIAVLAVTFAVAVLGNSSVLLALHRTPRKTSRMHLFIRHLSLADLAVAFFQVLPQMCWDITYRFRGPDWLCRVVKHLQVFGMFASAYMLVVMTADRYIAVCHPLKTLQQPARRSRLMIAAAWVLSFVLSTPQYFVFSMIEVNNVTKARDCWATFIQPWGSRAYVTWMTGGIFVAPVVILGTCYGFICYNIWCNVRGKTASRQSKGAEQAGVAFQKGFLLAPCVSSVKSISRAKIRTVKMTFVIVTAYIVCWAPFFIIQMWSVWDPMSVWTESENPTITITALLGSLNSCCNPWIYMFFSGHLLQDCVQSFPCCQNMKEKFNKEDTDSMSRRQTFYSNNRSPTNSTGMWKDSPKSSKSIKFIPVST

Structure (SMILES)	Ki
Clc1ccc2c(c1)CNCc1nnc([C@H]3CC[C@@H](c4nsc5ccccc54)CC3)n1-2 [Example 34, cis-1-(4-Benzo[d]isothiazol-3-yl-cyclohexyl)-8-chloro-5,6-dihydro-4H-2,3,5,10b-tetraaza-benzo[e]azulene]	25.7 nM

same assay, conditions: 3H-Vasopressin displacement, membranes of HEK293 cells transiently transfected with human V1a receptor; Ki by Cheng-Prusoff; read-out: pKi (hV1a) (converted)

Structure (SMILES)	Ki
CC(C)(C)OC(=O)N1Cc2cc(Cl)ccc2-n2c(nnc2[C@H]2CC[C@H](c3nsc4cccnc43)CC2)C1 [Example 27, trans-8-Chloro-1-(4-isothiazolo[4,5-b]pyridin-3-yl-cyclohexyl)-4H,6H-2,3,5,10b-tetraaza-benzo[e]azulene-5-carboxylic acid tert-butyl ester]	4.27 nM
Clc1ccc2c(c1)CNCc1nnc([C@H]3CC[C@H](c4nsc5cccnc54)CC3)n1-2 [Example 28, trans-8-Chloro-1-(4-isothiazolo[4,5-b]pyridin-3-yl-cyclohexyl)-5,6-dihydro-4H-2,3,5,10b-tetraaza-benzo[e]azulene]	1.1 nM
CN1Cc2cc(Cl)ccc2-n2c(nnc2[C@H]2CC[C@H](c3nsc4cccnc43)CC2)C1 [Example 29, trans-8-Chloro-1-(4-isothiazolo[4,5-b]pyridin-3-yl-cyclohexyl)-5-methyl-5,6-dihydro-4H-2,3,5,10b-tetraaza-benzo[e]azulene]	0.794 nM
CC(C)(C)OC(=O)N1Cc2cc(Cl)ccc2-n2c(nnc2[C@H]2CC[C@H](c3nsc4cnccc43)CC2)C1 [Example 30]	5.5 nM
Clc1ccc2c(c1)CNCc1nnc([C@H]3CC[C@H](c4nsc5cnccc54)CC3)n1-2 [Example 31, trans-8-Chloro-1-(4-isothiazolo[5,4-c]pyridin-3-yl-cyclohexyl)-5,6-dihydro-4H-2,3,5,10b-tetraaza-benzo[e]azulene]	2.57 nM
CN1Cc2cc(Cl)ccc2-n2c(nnc2[C@H]2CC[C@H](c3nsc4cnccc43)CC2)C1 [Example 32]	0.891 nM
CC(C)(C)OC(=O)N1Cc2cc(Cl)ccc2-n2c(nnc2[C@H]2CC[C@@H](c3nsc4ccccc43)CC2)C1 [Example 33, cis-1-(4-Benzo[d]isothiazol-3-yl-cyclohexyl)-8-chloro-4H,6H-2,3,5,10b-tetraaza-benzo[e]azulene-5-carboxylic acid tert-butyl ester]	1.1 nM
CN1Cc2cc(Cl)ccc2-n2c(nnc2[C@H]2CC[C@@H](c3nsc4ccccc43)CC2)C1 [Example 35, cis-1-(4-Benzo[d]isothiazol-3-yl-cyclohexyl)-8-chloro-5-methyl-5,6-dihydro-4H-2,3,5,10b-tetraaza-benzo[e]azulene]	4.27 nM
